The text below walks through data of patent US6495699B2, “Metalloproteinase inhibitors, pharmaceutical compositions containing them, and their use” (Agouron Pharmaceuticals Inc., priority 1996, dated 2002).

As usually defined, the AUC is concentration integrated over time. One may read the Cmax as the highest concentration seen after dosing.

The target in data set [1] is T1, human progelatinase A (GelA), catalytic and fibronectin-like portion (Homo sapiens, UniProt P08253).
T1 construct: The catalytic and fibronectin-like portion of human progelatinase A (GelA) was expressed as a fusion protein with ubiquitin; ubiquitin; made in house; host or cells: E. coli
T1 sequence (P08253 110-465 limits assumed): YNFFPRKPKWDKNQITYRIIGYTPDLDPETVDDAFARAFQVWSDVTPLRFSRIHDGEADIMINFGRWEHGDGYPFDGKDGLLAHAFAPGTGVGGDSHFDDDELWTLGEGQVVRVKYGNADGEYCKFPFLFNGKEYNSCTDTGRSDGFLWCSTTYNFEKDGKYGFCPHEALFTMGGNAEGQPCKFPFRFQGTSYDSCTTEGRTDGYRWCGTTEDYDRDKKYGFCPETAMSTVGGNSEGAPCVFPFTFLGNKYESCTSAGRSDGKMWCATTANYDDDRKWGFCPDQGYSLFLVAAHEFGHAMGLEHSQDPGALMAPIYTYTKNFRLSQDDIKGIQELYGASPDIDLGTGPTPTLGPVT
In words: Fluorometric MCA-peptide hydrolysis assay, gelatinase A (GelA). The class given is biochemical. To be noted: apparent Ki; 10 μM MCA peptide substrate, 37° C., pH 7.5. In a few lines: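 E. coli-expressed ubiquitin fusion of human proGelA catalytic plus fibronectin-like domains, autoactivated; 10 μM MCA-Pro-Leu-Gly-Leu-DPA-Ala-Arg-NH2, pH 7.5 Tricine/NaCl/CaCl2/Zn buffer, 2% DMSO, 37° C, 60 min. Fluorescence 328/393 nm; steady-state rates fitted to competitive inhibition or Morrison tight-binding equation giving Ki,app (≈Ki since [S]<<Km).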

The target in another data set is T2, Human matrilysin (Matr) (Homo sapiens, UniProt P09237).
T2 construct: the catalytic domain was liberated by treatment with 2 mM APMA at 37° C. for 2 hours; ubiquitin (cleaved yes); made in house; host or cells: E. coli
T2 sequence (P09237 95-267): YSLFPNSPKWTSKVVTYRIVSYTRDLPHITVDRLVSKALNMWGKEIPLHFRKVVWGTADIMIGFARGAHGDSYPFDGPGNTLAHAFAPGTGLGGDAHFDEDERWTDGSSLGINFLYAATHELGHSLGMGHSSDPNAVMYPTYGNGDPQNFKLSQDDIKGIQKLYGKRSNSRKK
The data set can be described thus: Fluorometric MCA-peptide hydrolysis assay, matrilysin (Matr). The class given is biochemical. To be noted: apparent Ki; 10 μM MCA peptide substrate, 37° C., pH 7.5; read-out: Matr (Ki,app). In a few lines:
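Catalytic domain of E. coli-expressed human matrilysin assayed at 37° C, pH 7.5 Tricine buffer, 2% DMSO, with 10 μM MCA-Pro-Leu-Gly-Leu-DPA-Ala-Arg-NH2; fluorescence ex 328/em 393 nm over 60 min. Ki,app from steady-state rates fitted to competitive inhibition or Morrison tight-binding equation.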

Data set [2] deals with T3, catalytic domain of human stromelysin (Hsln) (Homo sapiens, UniProt P08254).
T3 construct: The catalytic domain of human stromelysin (Hsln) was obtained by expression and purification of a C-terminally truncated prostromelysin-1; made in house; host or cells: E. coli BL21
T3 sequence (P08254 100-272 limits assumed): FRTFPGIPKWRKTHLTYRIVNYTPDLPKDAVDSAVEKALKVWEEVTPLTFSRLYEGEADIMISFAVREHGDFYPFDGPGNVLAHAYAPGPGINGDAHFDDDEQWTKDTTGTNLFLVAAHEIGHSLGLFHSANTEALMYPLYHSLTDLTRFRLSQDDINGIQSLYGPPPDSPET
In words: Fluorometric MCA-peptide hydrolysis assay, stromelysin (Hsln). To be noted: apparent Ki; 10 μM MCA peptide substrate, 37° C., pH 7.5; read-out: Hsln (Ki,app). The class given is biochemical. The gist of the method:
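APMA-activated E. coli–expressed catalytic domain, with 10 μM MCA-Pro-Leu-Gly-Leu-DPA-Ala-Arg-NH2 at 37 °C. Buffer was pH 7.5 Tricine with NaCl, CaCl2, zinc acetate and 2% final DMSO; fluorescence read at ex 328/em 393 nm over 60 min. Ki,app from steady-state rates fitted to competitive or Morrison tight-binding equations.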

Data set [3] has as its target T4, human collagenase-3 (Coll3) (Homo sapiens, UniProt P45452).
T4 construct: the catalytic domain was liberated by treatment with 2 mM APMA at room temperature overnight; ubiquitin (N, cleaved yes); made in house; host or cells: E. coli
In words: Fluorometric MCA-peptide hydrolysis assay, collagenase-3 (Coll3). The format is biochemical. To be noted: apparent Ki; 10 μM MCA peptide substrate, 37° C., pH 7.5; read-out: Coll3 (Ki,app).

Data set [4] in a line: Determination of inhibitor concentration in plasma after oral dosing. The format is in vivo, Sprague Dawley rats. The note with it: Sprague-Dawley, rat plasma. Here is the method:
The dosing solution consisted of the inhibitor dissolved in either a molar equivalent of HCl in water (vehicle A), in 60% aq. propylene glycol (vehicle B), or in 2.8 mg/mL sodium bicarbonate in 60% aqueous propylene glycol (vehicle C), yielding a final concentration that ranged from 10-15 mg/ml. Sprague Dawley rats (Hilltop Lab Animals, Scottsdale, Pa.) were dosed as a function of drug weight per body weight, usually 50 mgper kg. Blood was taken from the rats and centrifuged, and the plasma was stored in the freezer. Drug was extracted from a 50 μl plasma aliquot by adding 1 ml of acetonitrile, shaking for 2 minutes, centrifuging for 15 minutes at 4000 rpm, collecting the supernatant, and then evaporating it to dryness under a stream of nitrogen. The samples were reconstituted with 130 μl of mobile phase, shook for 2 minutes, and centrifuged for 15 minutes at 4000 rpm. The supernatant was collected and the samples were analyzed by injecting 100 μl of supernatant onto HPLC.
Quantitation of drug levels was accomplished by generating a standard curve of known drug amounts that were extracted from added plasma. Drug levels were plotted as a function of time and analyzed to provide area under the curve (AUC) and maximum concentration (Cmax) values.

Where [5] appears, read: dose 25 mg/kg, vehicle A (molar equivalent of HCl in water).
The mark [6] stands for this setting: dose 50 mg/kg, vehicle A, dosed as the benzyl ester prodrug.
Where [7] appears, read: dose 50 mg/kg, vehicle B (60% aq. propylene glycol).
The mark [8] stands for this setting: dose 25 mg/kg, vehicle C (2.8 mg/mL sodium bicarbonate in 60% aqueous propylene glycol).

For `CC1(C)COC(=O)[C@H]1NC(=O)[C@@H](CC(=O)O)n1ccc(-c2ccc(-c3ccncc3)cc2)c1` [Example 6(c), N-(4,4-Dimethyl-2-oxo-tetrahydrofuran-3(S)-yl)-3(R)-[3-[4-(pyridin-4-yl)phenyl]-1H-pyrrol-1-yl]succinamic Acid], the GelA (Ki,app) in data set [1] is 0.806 nM. The Ki turned out to be 5000 nM at Human matrilysin (Matr), 54 nM in data set [2] and 7.6 nM in data set [3]. The values for the AUC in data set [4] (setting [5]) and in data set [4] (setting [6]) were 933 ng·h/mL and 4420 ng·h/mL, respectively. In addition, the results for the Cmax in data set [4] (setting [5]) and in data set [4] (setting [6]) were 450 ng/mL and 1140 ng/mL, respectively.
For the compound `CNC(=O)[C@@H](NC(=O)[C@@H](CC(=O)O)c1ccn(-c2ccc(F)cc2)c1)C(C)(C)C` [Example 14(a), N-[2,2-Dimethyl-1(S)-(methylcarbamoyl)propyl]-3(S)-[1-(4-fluorophenyl)-1H-pyrrol-3-yl]succinamic Acid], in data set [1], the GelA (Ki,app) was determined as 4.3 nM. The Ki in data set [2] worked out at 558 nM; in data set [3], 7.2 nM. Further, in data set [4] (setting [7]), the exposure (AUC) is 1570 ng·h/mL. The same compound had a Cmax in data set [4] (setting [7]) of 820 ng/mL.
Turning to `CC1(C)COC(=O)[C@H]1NC(=O)[C@@H](CC(=O)O)c1ccn(-c2ccc(-c3ccc(C#N)cc3)cc2)c1` [Example 14(d), 3(S)-[1-(4′-Cyanobiphenyl-4-yl)-1H-pyrrol-3-yl]-N-(4,4-dimethyl-2-oxo-tetrahydrofuran-3(S)-yl)succinamic Acid], the GelA (Ki,app) in data set [1] is 0.9 nM. For the same compound, the Ki in data set [2] came out at 19 nM. In data set [4] (setting [8]), this compound gave an exposure (AUC) of 5820 ng·h/mL and a Cmax of 1370 ng/mL.
